One block for each compound: values may come before it. The source made the active and inactive calls. The rule behind the calls is not given here.
What was measured:
[1] = molecular target: T1, Connector enhancer of kinase suppressor of ras 1 (Homo sapiens, UniProt Q969H4); assay: Binding affinity to CNKSR1 PH-domain (unknown origin) by SPR spectroscopy
T1 sequence (Q969H4 whole entry): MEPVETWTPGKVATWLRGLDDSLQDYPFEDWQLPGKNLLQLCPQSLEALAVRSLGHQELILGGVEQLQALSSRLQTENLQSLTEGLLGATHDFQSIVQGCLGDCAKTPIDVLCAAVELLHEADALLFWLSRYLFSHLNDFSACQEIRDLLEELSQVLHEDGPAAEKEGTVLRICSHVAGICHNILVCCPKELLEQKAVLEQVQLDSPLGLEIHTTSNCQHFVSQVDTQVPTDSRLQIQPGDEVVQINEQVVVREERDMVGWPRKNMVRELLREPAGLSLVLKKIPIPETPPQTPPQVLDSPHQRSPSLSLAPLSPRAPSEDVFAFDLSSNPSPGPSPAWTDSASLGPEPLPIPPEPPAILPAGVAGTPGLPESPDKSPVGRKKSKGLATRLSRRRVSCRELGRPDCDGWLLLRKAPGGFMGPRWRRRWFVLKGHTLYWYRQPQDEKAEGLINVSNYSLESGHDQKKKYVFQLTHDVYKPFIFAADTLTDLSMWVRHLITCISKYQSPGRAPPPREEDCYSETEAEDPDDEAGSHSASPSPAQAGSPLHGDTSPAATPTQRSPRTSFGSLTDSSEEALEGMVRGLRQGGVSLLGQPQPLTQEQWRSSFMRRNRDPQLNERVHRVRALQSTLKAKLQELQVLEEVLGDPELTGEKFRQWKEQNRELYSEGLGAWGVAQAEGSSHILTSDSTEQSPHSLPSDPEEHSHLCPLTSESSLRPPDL

[2] = molecular target: RAC-alpha serine/threonine-protein kinase (Homo sapiens, UniProt P31749); assay: Binding affinity to AKT PH-domain (unknown origin) at 0.01 to 50 uM by SPR spectroscopy
RAC-alpha serine/threonine-protein kinase, sequence (P31749 whole entry): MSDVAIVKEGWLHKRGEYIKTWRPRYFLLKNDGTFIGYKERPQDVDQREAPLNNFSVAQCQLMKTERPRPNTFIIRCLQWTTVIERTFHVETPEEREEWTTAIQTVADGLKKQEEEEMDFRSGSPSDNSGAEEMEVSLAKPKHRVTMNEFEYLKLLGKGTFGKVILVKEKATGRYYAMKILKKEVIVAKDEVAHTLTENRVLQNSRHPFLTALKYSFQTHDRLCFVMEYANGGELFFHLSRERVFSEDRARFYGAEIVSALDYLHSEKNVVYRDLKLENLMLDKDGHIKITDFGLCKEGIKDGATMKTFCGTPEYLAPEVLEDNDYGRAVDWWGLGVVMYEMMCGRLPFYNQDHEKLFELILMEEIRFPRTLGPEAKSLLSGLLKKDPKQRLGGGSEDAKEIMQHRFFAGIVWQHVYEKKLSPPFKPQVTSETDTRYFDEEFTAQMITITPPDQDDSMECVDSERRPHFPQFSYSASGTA

Homo sapiens [3] = species: Homo sapiens; assay: Selectivity index, ratio of binding affinity to TIAM1 PH-domain (unknown origin) by SPR spectroscopy to binding affinity to CNKSR1 PH-domain (unknown origin) by SPR spectroscopy
Homo sapiens [4] = species: Homo sapiens; assay: Selectivity index, ratio of binding affinity to AKT PH-domain (unknown origin) by SPR spectroscopy to binding affinity to CNKSR1 PH-domain (unknown origin) by SPR spectroscopy
[5] = molecular target: T2, 3-phosphoinositide-dependent protein kinase 1 (Homo sapiens) (UniProt O15530); assay: Binding affinity to PDPK1 PH-domain (unknown origin) at 0.01 to 50 uM by SPR spectroscopy
T2 sequence (whole entry): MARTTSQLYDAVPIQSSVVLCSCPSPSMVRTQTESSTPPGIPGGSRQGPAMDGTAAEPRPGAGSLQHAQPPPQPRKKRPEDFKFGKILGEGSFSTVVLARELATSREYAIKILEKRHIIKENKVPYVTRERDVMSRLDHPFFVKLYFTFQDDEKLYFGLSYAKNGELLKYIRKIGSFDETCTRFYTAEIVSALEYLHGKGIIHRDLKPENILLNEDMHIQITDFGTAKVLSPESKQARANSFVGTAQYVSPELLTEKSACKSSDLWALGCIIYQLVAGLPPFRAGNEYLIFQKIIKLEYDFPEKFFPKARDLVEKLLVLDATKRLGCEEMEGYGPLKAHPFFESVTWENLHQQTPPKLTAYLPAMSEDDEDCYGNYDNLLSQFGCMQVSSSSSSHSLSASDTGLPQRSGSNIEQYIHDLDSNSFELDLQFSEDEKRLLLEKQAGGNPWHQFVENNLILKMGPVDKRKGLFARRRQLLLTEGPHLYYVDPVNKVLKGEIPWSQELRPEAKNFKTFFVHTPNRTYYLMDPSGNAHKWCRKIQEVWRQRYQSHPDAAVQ

A549 [6] = assay: Growth inhibition of human A549 cells relative to control; type: functional, cell-based
HCC515 [7] = assay: Growth inhibition of human HCC515 cells relative to control; type: functional, cell-based
[8] = molecular target: Rho guanine nucleotide exchange factor TIAM1 (Homo sapiens) (UniProt Q13009); assay: Binding affinity to TIAM1 PH-domain (unknown origin) at 0.01 to 50 uM by SPR spectroscopy
Rho guanine nucleotide exchange factor TIAM1 (Homo sapiens), sequence (Q13009 whole entry): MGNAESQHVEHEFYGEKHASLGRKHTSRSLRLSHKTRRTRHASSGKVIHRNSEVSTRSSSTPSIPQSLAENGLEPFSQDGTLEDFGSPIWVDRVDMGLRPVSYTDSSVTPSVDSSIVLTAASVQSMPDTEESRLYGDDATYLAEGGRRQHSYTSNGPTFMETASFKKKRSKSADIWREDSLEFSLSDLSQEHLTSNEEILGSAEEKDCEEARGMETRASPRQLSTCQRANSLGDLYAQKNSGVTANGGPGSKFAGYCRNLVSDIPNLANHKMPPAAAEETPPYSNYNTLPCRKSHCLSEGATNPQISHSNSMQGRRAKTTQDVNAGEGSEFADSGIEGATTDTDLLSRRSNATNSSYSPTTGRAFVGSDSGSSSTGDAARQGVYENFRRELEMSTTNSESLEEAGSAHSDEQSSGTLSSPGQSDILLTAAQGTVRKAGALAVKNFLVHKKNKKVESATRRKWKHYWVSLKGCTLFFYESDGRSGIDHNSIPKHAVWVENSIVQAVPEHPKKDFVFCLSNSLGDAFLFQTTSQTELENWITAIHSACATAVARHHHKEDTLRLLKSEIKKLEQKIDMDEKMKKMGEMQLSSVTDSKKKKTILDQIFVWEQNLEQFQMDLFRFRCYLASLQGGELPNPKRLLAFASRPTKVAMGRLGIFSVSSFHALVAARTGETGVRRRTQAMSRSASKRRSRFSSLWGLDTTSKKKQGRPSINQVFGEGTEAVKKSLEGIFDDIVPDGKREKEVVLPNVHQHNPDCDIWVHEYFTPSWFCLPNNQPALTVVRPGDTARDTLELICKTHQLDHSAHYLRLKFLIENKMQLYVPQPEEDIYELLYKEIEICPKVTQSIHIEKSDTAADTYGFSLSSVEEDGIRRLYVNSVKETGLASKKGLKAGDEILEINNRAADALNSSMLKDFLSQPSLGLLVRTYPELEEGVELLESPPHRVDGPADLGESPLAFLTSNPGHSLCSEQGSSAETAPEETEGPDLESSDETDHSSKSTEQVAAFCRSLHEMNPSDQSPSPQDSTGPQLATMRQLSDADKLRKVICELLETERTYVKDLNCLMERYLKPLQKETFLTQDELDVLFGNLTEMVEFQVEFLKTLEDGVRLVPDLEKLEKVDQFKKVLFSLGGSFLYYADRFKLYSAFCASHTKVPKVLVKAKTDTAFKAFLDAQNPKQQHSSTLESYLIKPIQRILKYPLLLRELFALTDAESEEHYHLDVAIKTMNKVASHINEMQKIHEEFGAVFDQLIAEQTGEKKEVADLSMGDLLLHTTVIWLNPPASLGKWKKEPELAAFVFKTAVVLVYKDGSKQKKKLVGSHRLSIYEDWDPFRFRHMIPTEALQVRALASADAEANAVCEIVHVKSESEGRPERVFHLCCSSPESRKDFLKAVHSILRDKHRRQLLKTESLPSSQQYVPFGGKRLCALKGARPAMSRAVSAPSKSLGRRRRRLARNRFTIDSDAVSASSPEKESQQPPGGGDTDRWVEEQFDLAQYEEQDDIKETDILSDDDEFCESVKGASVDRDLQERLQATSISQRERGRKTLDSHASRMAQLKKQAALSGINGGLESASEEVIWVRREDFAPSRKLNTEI

Homo sapiens [9] = species: Homo sapiens; assay: Selectivity index, ratio of binding affinity to PDPK1 PH-domain (unknown origin) by SPR spectroscopy to binding affinity to CNKSR1 PH-domain (unknown origin) by SPR spectroscopy
NCI-H2122 [10] = assay: Growth inhibition of human NCI-H2122 cells relative to control; type: functional, cell-based
NCI-H1373 = assay: Growth inhibition of human NCI-H1373 cells relative to control; type: functional, cell-based
HCC95 = assay: Growth inhibition of human HCC95 cells incubated for 3 days; type: functional, cell-based; details: HCC95, 72 h
NCI-H2122 [11] = assay: Growth inhibition of human NCI-H2122 cells incubated for 3 days; type: functional, cell-based; details: NCI-H2122, 72 h
HCC515 [12] = assay: Growth inhibition of human HCC515 cells incubated for 3 days; type: functional, cell-based; details: HCC515, 72 h
[13] = Growth inhibition of human […] cells incubated for 3 days; type: functional; details: 72 h
Pleckstrin = molecular target: T3, Pleckstrin (Homo sapiens, UniProt P08567); assay: Binding affinity to PLEK PH-domain (unknown origin) at 0.01 to 50 uM by SPR spectroscopy
T3 sequence (P08567 whole entry): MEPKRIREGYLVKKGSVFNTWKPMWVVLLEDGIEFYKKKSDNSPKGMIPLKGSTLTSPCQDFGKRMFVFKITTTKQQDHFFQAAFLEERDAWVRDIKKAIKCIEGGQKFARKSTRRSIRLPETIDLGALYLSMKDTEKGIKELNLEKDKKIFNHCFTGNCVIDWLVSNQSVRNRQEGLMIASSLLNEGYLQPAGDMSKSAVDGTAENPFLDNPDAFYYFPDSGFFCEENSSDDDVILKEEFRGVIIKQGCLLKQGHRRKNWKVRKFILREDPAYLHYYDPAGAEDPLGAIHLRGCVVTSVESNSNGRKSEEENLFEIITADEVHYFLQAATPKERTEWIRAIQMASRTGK

[14] = molecular target: T4, Connector enhancer of kinase suppressor of ras 1 (Homo sapiens) (UniProt Q969H4); assay: Inhibition of CNKSR1 (unknown origin) assessed as reduction in inhibition of KRas signaling effectors by measuring GTP-RalA levels at 20 uM by cell based assay
T4 sequence (whole entry): T1 sequence (Q969H4 whole entry)

[15] = molecular target: T4, Connector enhancer of kinase suppressor of ras 1 (Homo sapiens); assay: Inhibition of GFP-tagged CNKSR1 (unknown origin) expressed in HEK293T cells assessed as inhibition of direct binding of CNKSR1 to mut-KRAS at 50 uM incubated for 4 hrs by fluorescence lifetime imaging microscopy; type: cell-based
[16] = molecular target: T4, Connector enhancer of kinase suppressor of ras 1 (Homo sapiens); assay: Inhibition of CNKSR1 (unknown origin) assessed as reduction in inhibition of KRas signaling effectors by measuring p-MAPK levels at 20 uM by cell based assay
[17] = molecular target: T4, Connector enhancer of kinase suppressor of ras 1 (Homo sapiens); assay: Inhibition of GFP-tagged CNKSR1 (unknown origin) expressed in HEK293T cells assessed as reduction in total mutant-KRas protein at 50 uM incubated for 4 hrs by confocal imaging assay; type: cell-based
A549 [18] = assay: Antitumor activity against human A549 cells xenografted in nu/nu mouse assessed as reduction in tumor volume at 200 mg/kg, ip dosed daily for 8 days; type: functional, organism-based
[19] = molecular target: T4, Connector enhancer of kinase suppressor of ras 1 (Homo sapiens); assay: Inhibition of CNKSR1 (unknown origin) assessed as reduction in inhibition of KRas signaling effectors by measuring p-AKT levels at 20 uM by cell based assay
[20] = molecular target: T4, Connector enhancer of kinase suppressor of ras 1 (Homo sapiens); assay: Inhibition of GFP-tagged CNKSR1 (unknown origin) expressed in HEK293T cells assessed as blocking of membrane colocalization of CNKSR1 and mutant-KRas at plasma membrane at 50 uM incubated for 4 hrs by confocal imaging assay; type: cell-based
A549 [21] = assay: Antitumor activity against human A549 cells xenografted in nu/nu mouse assessed as reduction in tumor volume at 200 mg/kg, ip dosed daily for 8 days co-treated with 75 mg/kg, po erlotinib; type: functional, organism-based
[22] = Terminal half life in iv dosed mouse; type: ADME, organism-based; details: in vivo, read-out: beta t1/2
[23] = Half life in C57BL6 mouse at 250 mg/kg, po dosed via gavage as single administration; type: ADME, organism-based; details: in vivo
[24] = Cmax in C57BL6 mouse plasma at 250 mg/kg, po dosed via gavage as single administration; type: ADME, organism-based; set-up: dose 250 mg/kg, route oral

Ratio (Homo sapiens [3]): 50 to 100
Ratio (Homo sapiens [4]): 50 to 100
Activity [5]: inactive
Activity [8]: inactive
Activity [2]: inactive
Ratio (Homo sapiens [9]): 50 to 100
Compound: CC(=O)Nc1cccc(-n2nnc(SCC(=O)c3cc(-c4ccccc4)no3)n2)c1
growth inhibition (GI) (A549 [6]): Active
growth inhibition (GI) (HCC515 [7]): Active
growth inhibition (GI) (NCI-H2122 [10]): Active
growth inhibition (GI) (NCI-H1373): Active

Kd ([1]; read-out: Kd): 3.64 µM
IC50 (HCC95): 13 µM
Activity [2]: Active
IC50 (NCI-H2122 [11]): 34 µM
IC50 (HCC515 [12]): 11 µM
Compound: O=C(O)CSc1cc(NS(=O)(=O)c2cccs2)c2ccccc2c1O
IC50 [13]: 7 µM

inhibition [14]: Active
IC50 (HCC95): 45 µM
inhibition [15]: Active
inhibition [16]: Active
IC50 (NCI-H2122 [11]): > 100 µM
inhibition [17]: Active
inhibition [19]: Active
inhibition [20]: Active
IC50 (HCC515 [12]): 37 µM
half-life [22]: 4.33 h
Compound: Cc1ccc(-c2csc(Cn3nc(CC4OCCCO4)c4ccccc4c3=O)n2)cc1
TGI (A549 [18]): Active
TGI (A549 [21]): Active
IC50 [13]: 38 µM

half-life [22]: 0.583 h
Compound: Cc1ccc(-c2csc(Cn3nc(CC=O)c4ccccc4c3=O)n2)cc1

Kd ([1]; read-out: Kd): 1.01 µM
Kd ([2]; read-out: Kd): 1.28 µM
Compound: Cc1ccc(-c2nc(SCC(=O)O)c3c(=O)n(C)c(=O)n(C)c3n2)cc1

inhibition [14]: Active
IC50 (HCC95): 40 µM
inhibition [16]: Active
IC50 (NCI-H2122 [11]): > 100 µM
inhibition [19]: Active
IC50 (HCC515 [12]): 34 µM
Compound: Cc1ccc(-c2csc(Cn3nc(CC4OCC(=O)O4)c4ccccc4c3=O)n2)cc1 (stereo not drawn)
IC50 [13]: 56 µM

inhibition [14]: Active
IC50 (HCC95): 46 µM
inhibition [16]: Active
IC50 (NCI-H2122 [11]): 26 µM
inhibition [19]: Active
IC50 (HCC515 [12]): 28 µM
half-life [22]: 4.08 h
Compound: Cc1ccc(-c2csc(Cn3nc(Cc4nccs4)c4ccccc4c3=O)n2)cc1
IC50 [13]: 49 µM

Activity [2]: Active
Compound: Cc1c(Cl)ccc2c(C(=O)O)cc(-c3cccnc3)nc12

half-life [23]: 13 h
inhibition [14]: Active
IC50 (HCC95): > 100 µM
inhibition [16]: Active
IC50 (NCI-H2122 [11]): > 100 µM
inhibition [19]: Active
IC50 (HCC515 [12]): > 100 µM
half-life [22]: 1.2 h
Cmax [24]: 230 µM
Compound: Cc1ccc(-c2csc(Cn3nc(CC(=O)O)c4ccccc4c3=O)n2)cc1
IC50 [13]: > 100 µM

half-life [22]: 0.467 h
Compound: CCNC(=O)Cc1nn(Cc2nc(-c3ccc(C)cc3)cs2)c(=O)c2ccccc12
TGI (A549 [18]): Active

The remaining lines, values behind:

Compound: O=C(O)CCc1ccc(-c2ccc(Br)cc2)n1CCC(=O)O
Kd ([1]; read-out: Kd): 0.000196 µM
Activity [2]: Active

Compound: CCOC(=O)/C=C/c1c(O)c(OC)cc(NS(=O)(=O)c2cccs2)c1SC
Kd (Pleckstrin): 300 µM

Compound: O=C(O)c1ccc2c(c1)C1C=CCC1C(C(=O)O)N2 (stereo not drawn)
Kd ([1]; read-out: Kd): 5.34 µM
Kd ([2]; read-out: Kd): 0.000474 µM

Compound: Nc1cccc(-c2cc(C(=O)O)c3cc(Cl)ccc3n2)c1
Activity [2]: Active

Compound: O=C(O)COc1cc(OCC(=O)O)c2c3c(c(=O)oc2c1)CCCC3
Kd ([1]; read-out: Kd): 1.13 µM
Activity [2]: Active

Compound: Cc1ccc(-c2csc(Cn3nc(CC(=O)N4CCN(C)CC4)c4ccccc4c3=O)n2)cc1
half-life [22]: 5.45 h

Compound: COc1c(/C=C/C(=O)O)cc(NS(=O)(=O)c2cccs2)c2c1OCO2
Kd [1]: Not Active
Kd [2]: Not Active

Compound: CCOC(=O)/C=C/c1cc(NS(=O)(=O)c2cccs2)c2c(c1O)OCO2
Kd (Pleckstrin): 261 µM

Compound: COc1ccc(OC)c(-c2cc(C(=O)O)c3nc(C)[nH]c3n2)c1
Activity [2]: Active
